“Also recorded” adds a separate entry of the source.
Columns and labels:
[1] = format: physicochemical; details: for Main-transition Tm (peak position) / Pre-transition Tm (peak position): multilamellar liposomes, scan rate 20° C./h; for pre-transition of the lipid membrane (Cp-curves): one-component multilamellar liposomes
Description: FIG. 3. Heat capacity, CP, obtained using differential scanning calorimetry at a scan rate of 20° C./h for 0.15 mM multilamellar liposomes: (A) 1-O-DPPC′ (left), DPPC (middle), and 1-O-DPPC (right). (B) 1-O-DPPG′ (left), DPPG (middle) and 1-O-DPPG (right).
By replacing the ester linkage in the C-1 position with an ether bond, these unnatural phospholipids can furthermore be used as novel prodrug anticancer lipids to make liposomal microcarriers that can be degraded to active anticancer lysoetherlipids by PLA2 [27]. The lipid prodrug analogs (1-O-DPPC and 1-O-DPPG) were synthesized as described earlier. 1,2-dipalmitoyl-sn-glycero-3-phosphocholine (DPPC), 1,2-dipalmitoyl-sn-glycero-3-phosphoglycerol (DPPG), and 1,2-distearoyl-sn-glycero-3-phosphoethanolamine poly(ethylene glycol)2000 (DSPE-PEG2000) were purchased from Avanti Polar Lipids, AL, USA. Multi- and unilamellar liposomes were hydrated in a HEPES buffer solution (10 mM HEPES, 110 mM KCl, 1 mM NaN3, 30 μM CaCl2, 10 μM NaEDTA, pH 7.5) and prepared as described in previous work. Differential scanning calorimetry was carried out in the upscan mode at a scanrate of 20° C./h using multilamellar liposomes. The PLA2 lag time measurements on 1-O-DPPC′ unilamellar liposomes incorporated with small amounts of 1-O-DPPG′ or DSPE-PEG2000 lipids were performed in the gel-to-fluid main phase transition range and the degree of lipid hydrolysis was analyzed using HPLC techniques.
The heat capacity (Cp) curves obtained using differential scanning calorimetry are shown in FIG. 3 for one-component 1-O-DPPC′ and 1-O-DPPG′ multilamellar liposomes. The Cp-curves show a main peak at 40.1° C. and 40.6° C. reflecting the chain disordering gel-to-fluid main phase transition of the 1-O-DPPC′ and 1-O-DPPG′ lipid membranes, respectively. […] This leads to the formation of low temperature ordered and non-corrugated gel phase (Lβ) that prevails until the unset of the main transition giving rise to a concomitant increase in the integrated melting enthalpy of the main transition (Table 1). Since the 1-O-DPPC′ and 1-O-DPPG′ lipids undergo a transition from an ordered configuration in the low temperature non-corrugated gel phase to a disordered configuration in the high temperature fluid phase without passing through the ripple phase, the integrated melting enthalpy is expected to be higher than for the natural DPPC and DPPG ripple phase forming lipids, which undergo a transition to the fluid phase from a ripple phase with a higher energy than the non-corrugated gel phase. In order to exclude the possibility that the abolished ripple transition is due to having an ether bond in the C-1 position, we have in FIG. 3 also shown Cp-curves obtained on 1-O-DPPC and 1-O-DPPG multilamellar liposomes. Clearly, these Cp-curves show the same characteristic phase behavior as the natural DPPC and DPPG lipids with a pre-transition a few degrees below the main phase transition peak underlining that it is the position of the phosphate head group in the C-3 position on the natural phospholipids that is crucial for ripple formation.

human secretory PLA2 = target: T1, human secretory PLA2 (Homo sapiens, UniProt P14555); assay: Hydrolysis of unilamellar liposomes by human secretory PLA2 from human tear fluid; format: biochemical
T1 construct: from tissue; host or cells: freshly prepared human tear fluid
T1 sequence (P14555 21-144): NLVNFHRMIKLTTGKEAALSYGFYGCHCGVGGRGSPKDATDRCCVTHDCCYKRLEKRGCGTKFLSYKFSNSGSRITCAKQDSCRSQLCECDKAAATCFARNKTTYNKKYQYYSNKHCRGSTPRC
Description: FIG. 4. Characteristic reaction time profiles at 40° C. for PLA2 hydrolysis of unilamellar. (A) 0.15 mM 1-O-DPPC′ liposomes incubated with 150 nM PLA2 (A. piscivorus piscivorus). (B) 0.15 mM 1-O-DPPG′ liposomes incubated with human secretory PLA2 from 20 μL freshly prepared human tear fluid (B). The PLA2 hydrolysis reaction is monitored by intrinsic fluorescence (solid line) from the enzyme and 90° static light scattering (dashed lines) from the lipid suspension. After adding PLA2 to the equilibrated liposome suspension a characteristic lag time, τ, follows before a sudden increase in the catalytic activity takes place (A).
FIG. 6. (A) PLA2 (A. piscivorus piscivorus) hydrolysis of 1-O-DPPC′ liposomes containing 0 mol % (▪), 2 mol % (▴), and 10 mol % (∘) 1-O-DPPG′ lipids, and 5 mol % (▾) DSPE-PEG2000 polymer lipids determined by HPLC [28]. The percent lipid hydrolysis is determined 1000 s after the unset of the burst. The concentration of the liposomes was 0.15 mM and the concentration of PLA2 was 150 nM. (B) Hydrolysis of 1-O-DPPG′ unilamellar liposomes determined by HPLC [28]. The PLA2 catalyzed lipid hydrolysis is determined as a function of time after addition of 20 μL freshly prepared human tear fluid to 0.15 mM 1-O-DPPG′ liposomes. […]

Compound	Main-transition ΔHm (melting enthalpy) [1]	Pre-transition ΔH (melting enthalpy) [1]	Main-transition Tm (peak position) [1]	Pre-transition Tm (peak position) [1]	pre-transition of the lipid membrane (Cp-curves) [1]	onset of hydrolysis / lag time (human secretory PLA2; 0.15 mM liposomes, 20 μL human tear fluid, 40° C.)	activity of human secretory PLA2 towards liposomes (human secretory PLA2; liposomes formed by the lipid)
1-O-hexadecyl-2-hexadecanoyl-sn-glycero-3-phosphoglycerol [1-O-DPPG]	9.1 kcal/mol	0.58 kcal/mol	41.8 °C	34.1 °C	–	–	–
CCCCCCCCCCCCCCCCOC[C@@H](COC(=O)CCCCCCCCCCCCCCC)OP(=O)([O-])OCC[N+](C)(C)C [1-O-DPPC′, (S)-1-O-hexadecyl-3-hexadecanoyl-glycero-2-phosphocholine]	12.8 kcal/mol	–	40.1 °C	–	abolished	–	–
(S)-1-O-hexadecyl-3-hexadecanoyl-glycero-2-phosphoglycerol [1-O-DPPG′]	11.3 kcal/mol	–	40.6 °C	–	abolished	immediate hydrolysis; also recorded: becomes active immediately after addition	high activity; also recorded: superior substrates

Continued, in another order:

Main-transition ΔHm (melting enthalpy) [1]	Pre-transition ΔH (melting enthalpy) [1]	Main-transition Tm (peak position) [1]	Pre-transition Tm (peak position) [1]	Compound	pre-transition of the lipid membrane (Cp-curves) [1]	onset of hydrolysis / lag time (human secretory PLA2; 0.15 mM liposomes, 20 μL human tear fluid, 40° C.)	activity of human secretory PLA2 towards liposomes (human secretory PLA2; liposomes formed by the lipid)
8.5 kcal/mol	0.84 kcal/mol	42.6 °C	32.0 °C	CCCCCCCCCCCCCCCCOC[C@H](COP(=O)([O-])OCC[N+](C)(C)C)OC(=O)CCCCCCCCCCCCCCC [1-O-DPPC, 1-O-hexadecyl-2-hexadecanoyl-sn-glycero-3-phosphocholine]	–	–	–
8.7 kcal/mol	1.2 kcal/mol	40.5 °C	31.9 °C	CCCCCCCCCCCCCCCC(=O)OC[C@H](COP(=O)([O-])OCC[N+](C)(C)C)OC(=O)CCCCCCCCCCCCCCC [DPPC, 1,2-dipalmitoyl-sn-glycero-3-phosphocholine]	–	–	–
9.8 kcal/mol	1.31 kcal/mol	40.6 °C	34.3 °C	CCCCCCCCCCCCCCCC(=O)OC[C@H](COP(=O)(O)OCC(O)CO)OC(=O)CCCCCCCCCCCCCCC (stereo partly drawn) [DPPG, 1,2-dipalmitoyl-sn-glycero-3-phosphoglycerol]	–	–	–

— patent US20080014253A1, “Lipid-Based Drug Delivery Systems Containing Unnatural Phospholipase A2 Degradable Lipid Derivatives and the Therapeutic Uses Thereof” (priority 2004, published 2008)
